Assay results reported in patent publication US20260317319A1, “NOVEL ERGOLINES AND METHODS OF TREATING MOOD DISORDERS” (Gilgamesh Pharma Inc., priority 2023, published 2026).
Read-outs that look alike come from different tables or passages of the source.

Assays:
[1] = target: T1, 5-HT2B receptor (Homo sapiens, UniProt P41595); assay: cell-based; type: cell-based; conditions: Ca2+ flux; for Emax: HEK293, agonist, HEK293, max dose, read-out: 5-HT2B % Act @ Max Dose; for EC50: agonist, HEK293
T1 construct: expressed in transfected cells; host or cells: HEK293, stably transfected
T1 sequence (P41595 whole entry): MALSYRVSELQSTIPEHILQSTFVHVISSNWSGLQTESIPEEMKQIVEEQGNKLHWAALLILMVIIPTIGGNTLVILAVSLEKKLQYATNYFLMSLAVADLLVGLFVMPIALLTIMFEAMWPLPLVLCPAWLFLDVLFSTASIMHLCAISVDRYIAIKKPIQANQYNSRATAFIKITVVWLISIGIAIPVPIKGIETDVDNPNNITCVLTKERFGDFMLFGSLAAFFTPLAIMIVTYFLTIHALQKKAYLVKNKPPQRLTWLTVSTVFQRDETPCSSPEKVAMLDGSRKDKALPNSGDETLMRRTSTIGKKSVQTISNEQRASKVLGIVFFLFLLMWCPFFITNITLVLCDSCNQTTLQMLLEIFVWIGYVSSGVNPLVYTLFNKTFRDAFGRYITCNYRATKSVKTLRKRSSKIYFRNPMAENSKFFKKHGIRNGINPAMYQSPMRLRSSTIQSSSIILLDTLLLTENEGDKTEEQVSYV
Description: (§1) Functional Assays at 5-HT2A, 5-HT2B, and 5-HT1A. Agonist activity at 5-HT2A, 5-HT2B, 5HT2C and 5-HT1A receptors was determined using a FLIPR Ca^2+ flux assay at WuXi AppTec (Hong Kong) Limited according to their standard protocols. Briefly, stably transfected cells expressing the receptor of interest and Gα15 in the case of 5-HT1A (HEK293 for 5-HT2A and 5-HT2B; CHO cells for 5-HT1A) were grown and plated in a 384 well plate and incubated at 37° C. and 5% CO2 overnight. A solution of 250 mM probenecid in 1 mL FLIPR assay buffer was prepared fresh. This was combined with a fluorescent dye (Fluo-4 Direct™) to make a final assay concentration of 2.5 mM. […] The fluorescent dye was then added to the assay plate along with assay buffer to a final volume of 40 μL. The cell plate was incubated for 50 min at 37° C. and 5% CO2 and placed into the FLIPR Tetra along with the compound plate. 10 μL of references and compounds were then transferred from the compound plate into the cell plate and the fluorescent signal was read.

[2] = target: T2, 5-HT1A receptor (Homo sapiens, UniProt P08908); assay: cell-based; conditions: agonist, Ca2+ flux; for Emax: CHO, CHO cells with Gα15, max dose, read-out: 5-HT1A % Act @ Max Dose; for EC50: CHO cells with Gα15
T2 construct: expressed in transfected cells; host or cells: CHO cells, stably transfected
T2 sequence (P08908 1-422): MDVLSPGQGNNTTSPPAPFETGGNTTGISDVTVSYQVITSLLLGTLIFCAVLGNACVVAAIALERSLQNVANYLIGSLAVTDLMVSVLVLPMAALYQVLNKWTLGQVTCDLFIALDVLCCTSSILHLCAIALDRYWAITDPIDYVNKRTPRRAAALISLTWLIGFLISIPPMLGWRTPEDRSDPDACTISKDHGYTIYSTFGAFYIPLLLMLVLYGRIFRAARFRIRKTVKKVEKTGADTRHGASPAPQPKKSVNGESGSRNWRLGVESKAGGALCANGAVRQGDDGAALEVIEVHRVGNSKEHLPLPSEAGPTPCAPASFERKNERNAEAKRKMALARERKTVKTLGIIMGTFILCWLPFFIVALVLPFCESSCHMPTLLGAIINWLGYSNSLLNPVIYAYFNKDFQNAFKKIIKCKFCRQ
Description: as §1

[3] = target: T3, 5-HT1B receptor (Homo sapiens, UniProt P28222); assay: cAMP accumulation functional assay at 5-HT1B; type: cell-based; conditions: agonist, cAMP accumulation, max dose; read-out: 5-HT1B % Act @ Max Dose
T3 construct: expressed in transfected cells
T3 sequence (P28222 whole entry): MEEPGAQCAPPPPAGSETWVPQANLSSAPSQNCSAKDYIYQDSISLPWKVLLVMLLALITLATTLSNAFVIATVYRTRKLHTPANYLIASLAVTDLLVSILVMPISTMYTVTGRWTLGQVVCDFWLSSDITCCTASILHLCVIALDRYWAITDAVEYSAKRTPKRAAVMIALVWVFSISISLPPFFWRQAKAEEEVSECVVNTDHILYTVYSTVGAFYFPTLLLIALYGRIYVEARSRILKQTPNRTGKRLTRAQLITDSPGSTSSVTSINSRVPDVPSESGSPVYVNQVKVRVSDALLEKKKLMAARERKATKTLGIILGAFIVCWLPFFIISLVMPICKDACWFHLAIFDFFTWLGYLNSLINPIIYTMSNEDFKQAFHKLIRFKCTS
Description: Functional Assay at 5-HT1B. Agonist activity at 5-HT1B was determined using a CAMP accumulation protocol at WuXi AppTec (Hong Kong) Limited according to their standard protocols. Briefly, stably transfected cells were plated in an OptiPlate-384 well plate, incubated at RT for 60 mins, and cAMP standard solution (800 nM, 10 μL) was added to the blank well. Then, 10 μL detection reagent was added to each well, the plate incubated for 60 mins at RT, and the plate read using En Vision.

[4] = target: T4, 5-HT2A receptor (Homo sapiens, UniProt P28223); assay: cell-based; type: cell-based; design: expressed in transfected cells; host or cells: HEK293, stably transfected; conditions: for Emax: HEK293, agonist, HEK293, max dose, read-out: 5-HT2A % Act @ Max Dose; for Emax / EC50: Ca2+ flux; for EC50: agonist, HEK293
T4 sequence (P28223 whole entry): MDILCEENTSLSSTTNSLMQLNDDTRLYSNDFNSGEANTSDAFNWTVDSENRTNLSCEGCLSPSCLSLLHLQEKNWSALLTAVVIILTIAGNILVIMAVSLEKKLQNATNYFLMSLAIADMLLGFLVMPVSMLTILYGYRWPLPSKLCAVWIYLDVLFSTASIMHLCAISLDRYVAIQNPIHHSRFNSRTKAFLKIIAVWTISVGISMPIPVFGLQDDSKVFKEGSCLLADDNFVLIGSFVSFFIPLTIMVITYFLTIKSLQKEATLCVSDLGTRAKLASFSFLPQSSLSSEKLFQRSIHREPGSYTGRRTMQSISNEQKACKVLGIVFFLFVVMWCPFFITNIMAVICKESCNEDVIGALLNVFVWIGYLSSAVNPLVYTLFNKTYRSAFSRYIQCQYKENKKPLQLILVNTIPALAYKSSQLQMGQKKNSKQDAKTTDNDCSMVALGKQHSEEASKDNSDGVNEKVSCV
Description: as §1

[5] = in vitro; type: in vitro ADME, human; conditions: human, microsomes, HLM 0.50 mg/mL, NADPH 1 mM, 1 μM compound, pH 7.4, 37° C., 60 min; for microsomal CLint: read-out: Intrinsic clearance (Clint); for half-life: read-out: half-life (t1/2)
[6] = in vitro; type: in vitro ADME, mouse; conditions: mouse, microsomes, MLM (male CD-1) 0.50 mg/mL, NADPH 1 mM, 1 μM compound, pH 7.4, 37° C., 60 min; for microsomal CLint: read-out: Intrinsic clearance (Clint); for half-life: read-out: half-life (t1/2)
From the text: MLM Stability Pooled MLM from male CD-1 mice (BIOIVT M00501) were used.

[7] = in vitro; type: in vitro ADME, rat; conditions: rat, microsomes, RLM (male Sprague-Dawley) 0.50 mg/mL, NADPH 1 mM, 1 μM compound, pH 7.4, 37° C., 60 min; for microsomal CLint: read-out: Intrinsic clearance (Clint); for half-life: read-out: half-life (t1/2)
From the text: RLM Stability Pooled RLM from male Sprague-Dawley rats (Xenotech R1000) were used.

[8] = target: T4, 5-HT2A receptor; assay: biochemical; type: binding; design: expressed in transfected cells; host or cells: HEK293, stably transfected; conditions: [3H]ketanserin 1 nM; HEK293 stable cell line; 1 h, 25 °C
Description: Affinity of the test compounds for the 5-HT2A receptor was determined in radioligand binding experiments with [^3H]ketanserin by WuXi AppTec (Hong Kong) Limited, using methods adapted from the literature and under conditions described in Table 1.

Row | Structure (SMILES) | Emax [1] | Emax [2] | Emax [3] | Emax [4] | selectivity for 5-HT2A over the other serotonin receptors tested ([4]; functional agonist activity) | EC50 [1] | EC50 [2] | microsomal CLint [5] | half-life [5] | microsomal CLint [6] | half-life [6] | microsomal CLint [7] | half-life [7] | Ki [8] | EC50 [4]
1 | CCCN1C[C@H](C(=O)N(CC)CC)C=C2c3cccc4[nH]c(Br)c(c34)C[C@H]21 [Compound 9, (6aR,9R)-5-bromo-N,N-diethyl-7-propyl-4,6,6a,7,8,9-hexahydroindolo[4,3-fg]quinoline-9-carboxamide] | 89.6% | 101% | 81.5% | 75.8% | – | – | – | – | – | – | – | – | – | – | –
2 | C[C@H]1C[C@H](C)N1C(=O)[C@@H]1C=C2c3cccc4[nH]cc(c34)C[C@H]2N(CCCF)C1 [Compound 26, ((2S,4S)-2,4-dimethylazetidin-1-yl)((6aR,9R)-7-(3-fluoropropyl)-4,6,6a,7,8,9-hexahydroindolo[4,3-fg]quinolin-9-yl)methanone] | 101% | 97.9% | 77.2% | 83.2% | – | – | – | – | – | – | – | – | – | – | –
3 | C=CCN1C[C@H](C(=O)N2[C@@H](C)C[C@@H]2C)C=C2c3cccc4[nH]cc(c34)C[C@H]21 [Compound 27, ((6aR,9R)-7-allyl-4,6,6a,7,8,9-hexahydroindolo[4,3-fg]quinolin-9-yl)((2S,4S)-2,4-dimethylazetidin-1-yl)methanone] | 96% | 90.8% | 96.9% | 81.1% | – | – | – | – | – | – | – | – | – | – | –
4 | CN1C[C@H](C(=O)N(CCF)CCF)C=C2c3cccc4[nH]cc(c34)C[C@H]21 [Compound 38, (6aR,9R)—N,N-bis(2-fluoroethyl)-7-methyl-4,6,6a,7,8,9-hexahydroindolo[4,3-fg]quinoline-9-carboxamide] | 28.1% | 90.5% | 94.7% | 93.4% | – | – | – | – | – | – | – | – | – | – | –
5 | CCN(CC)C(=O)[C@@H]1C=C2c3cccc4[nH]cc(c34)C[C@H]2N(CCF)C1 [Compound 39, (6aR,9R)—N,N-diethyl-7-(2-fluoroethyl)-4,6,6a,7,8,9-hexahydroindolo[4,3-fg]quinoline-9-carboxamide] | 85.5% | 91.2% | 99% | 95.5% | – | – | – | – | – | – | – | – | – | – | –
6 | CC[C@@H](C)NC(=O)[C@@H]1C=C2c3cccc4[nH]cc(c34)C[C@H]2N(CCC(F)(F)F)C1 [Compound 40, (6aR,9R)—N—((R)-sec-butyl)-7-(3,3,3-trifluoropropyl)-4,6,6a,7,8,9-hexahydroindolo[4,3-fg]quinoline-9-carboxamide] | 8.46% | 22.3% | 62.1% | 45.1% | highly selective for 5-HT2A | – | – | – | – | – | – | – | – | – | –
7 | CCN(CC)C(=O)[C@@H]1C=C2c3cccc4[nH]c(Br)c(c34)C[C@H]2N(CCCF)C1 [Compound 41, (6aR,9R)-5-bromo-N,N-diethyl-7-(3-fluoropropyl)-4,6,6a,7,8,9-hexahydroindolo[4,3-fg]quinoline-9-carboxamide] | 84.5% | 39.8% | 61.5% | 75.4% | – | – | – | – | – | – | – | – | – | – | –
8 | CCCN1C[C@H](C(=O)N[C@H](C)CC)C=C2c3cccc4[nH]c(Br)c(c34)C[C@H]21 [Compound 46, (6aR,9R)-5-bromo-N—((R)-sec-butyl)-7-propyl-4,6,6a,7,8,9-hexahydroindolo[4,3-fg]quinoline-9-carboxamide] | 79% | 69.5% | 78.8% | 69.5% | – | – | – | – | – | – | – | – | – | – | –
9 | CCCN1C[C@H](C(=O)N2[C@@H](C)C[C@@H]2C)C=C2c3cccc4[nH]c(Br)c(c34)C[C@H]21 [Compound 47, ((6aR,9R)-5-bromo-7-propyl-4,6,6a,7,8,9-hexahydroindolo[4,3-fg]quinolin-9-yl)((2S,4S)-2,4-dimethylazetidin-1-yl)methanone] | 87% | 62.1% | 76.2% | 57% | – | – | – | – | – | – | – | – | – | – | –
10 | CCN(CC)C(=O)[C@@H]1C=C2c3cccc4[nH]cc(c34)C[C@H]2N(Cc2cccc(C)c2)C1 [Compound 98, (6aR,9R)—N,N-diethyl-7-(3-methylbenzyl)-4,6,6a,7,8,9-hexahydroindolo[4,3-fg]quinoline-9-carboxamide] | 3.37% | 31.2% | – | 76.5% | – | > 10 µM | > 100 µM | 91.4 µL/min/mg | 15.2 min | 470 µL/min/mg | 3 min | 717 µL/min/mg | 1.9 min | 0.00826 µM | 0.431 µM
11 | CCN(CC)C(=O)[C@@H]1C=C2c3cccc4[nH]cc(c34)C[C@H]2N(Cc2ccc3ccccc3c2)C1 [Compound 100, (6aR,9R)—N,N-diethyl-7-(naphthalen-2-ylmethyl)-4,6,6a,7,8,9-hexahydroindolo[4,3-fg]quinoline-9-carboxamide] | 18.4% | 68.4% | – | 74.6% | – | > 10 µM | 20.8 µM | 43.9 µL/min/mg | 31.6 min | 117 µL/min/mg | 11.8 min | 167 µL/min/mg | 8.3 min | 0.00384 µM | 1.08 µM
12 | CCN(CC)C(=O)[C@@H]1C=C2c3cccc4[nH]cc(c34)C[C@H]2N(Cc2cccc3ccccc23)C1 [Compound 101, (6aR,9R)—N,N-diethyl-7-(naphthalen-1-ylmethyl)-4,6,6a,7,8,9-hexahydroindolo[4,3-fg]quinoline-9-carboxamide] | 11.7% | 61.8% | – | 86.5% | – | > 10 µM | 71.1 µM | 84.6 µL/min/mg | 16.4 min | 483 µL/min/mg | 2.9 min | 525 µL/min/mg | 2.6 min | 0.0245 µM | 0.271 µM
